The subject of one assay is Ear Edema Caused By Tetradecanoylphorbol Acetate. The assay can be described thus: Inhibition of Ear Edema Caused by Tetradecanoylphorbol Acetate (II), Table 7. The class given is in vivo, CF-1 Mice. The following applies: i.p., 10 mg/kg; 3 h. Here is the method: Inhibition of Ear Edema Caused by Tetradecanoylphorbol Acetate (II)
CF-1 Mice, 25-30 g body weight, six animals per group were used. Test compounds were administered intraperitoneally or topically as follows. For intraperitoneal administration, the test compound was dissolved in dimethyl sulfoxide or 0.5% methylcellulose and 100 microliters was injected 30 minutes prior to irritant (100 mg/kg, i.p.). […] A solution of the irritant, tetradecanoylphorbol acetate, 200 μg/mL, was added to the surface of the ear, 5 μL to the upper surface and 5 μL to the lower surface. After three hours, the thickness of the ear was measured to 0.01 mm by a micrometer with loose drag, positioned at the lateral-most edge of the mid-point of the pinna. Data were calculated as the inhibition of increased ear thickness compared to control animals receiving only the irritant.
Regarding `CC(C)(SCc1ccccc1)[C@@H](NC(=O)OCC1c2ccccc2-c2ccccc21)C(=O)O` [NPC 15953, S-Benzyl-β,β-dimethyl-N-[9H-(fluoren-9-ylmethoxy)carbonyl]-D-cystein], the “% Inhibition Intraperitoneal” value amounted to 64%.
On the same count and under the same terms, then `COCc1cccc2c1C(COC(=O)N[C@@H](CC(C)C)C(=O)O)c1ccccc1-2` (stereo partly drawn) [NPC 15673, N-{[9H-(1-Methoxymethylfluoren-9-yl)methoxy]carbonyl}-L-leucine], with 0%.

Still in this assay, the particulars now being: i.p., 30 mg/kg; 3 h.
With `CC(C)(SCc1ccccc1)[C@@H](NC(=O)OCC1c2ccccc2-c2ccccc21)C(=O)O` [NPC 15953, S-Benzyl-β,β-dimethyl-N-[9H-(fluoren-9-ylmethoxy)carbonyl]-D-cystein], the “% Inhibition Intraperitoneal” value amounted to 87%.
With `COCc1cccc2c1C(COC(=O)N[C@@H](CC(C)C)C(=O)O)c1ccccc1-2` (stereo partly drawn) [NPC 15673, N-{[9H-(1-Methoxymethylfluoren-9-yl)methoxy]carbonyl}-L-leucine], the “% Inhibition Intraperitoneal” value was 33%.

Staying with this assay, now noted: i.p., 100 mg/kg; 3 h.
`CC(C)(SCc1ccccc1)[C@@H](NC(=O)OCC1c2ccccc2-c2ccccc21)C(=O)O` [NPC 15953, S-Benzyl-β,β-dimethyl-N-[9H-(fluoren-9-ylmethoxy)carbonyl]-D-cystein]: the “% Inhibition Intraperitoneal” value stood at 95%.
With `COCc1cccc2c1C(COC(=O)N[C@@H](CC(C)C)C(=O)O)c1ccccc1-2` (stereo partly drawn) [NPC 15673, N-{[9H-(1-Methoxymethylfluoren-9-yl)methoxy]carbonyl}-L-leucine], the “% Inhibition Intraperitoneal” value came out at 60%.

The next assay concerns Ear Edema Caused by Arachidonic Acid. The assay can be described thus: Inhibition of Ear Edema Caused by Arachidonic Acid (II), Table 8. Format: in vivo, CF-1 mice. The following applies: i.p., 10 mg/kg; sixty minutes. The method, then: Inhibition of Ear Edema Caused by Arachidonic Acid (II)
CF-1 mice, 25-30 g body weight, six animals per group, were used. The requisite amount of the test compound was dissolved is dimethyl sulfoxide or 0.5% methylcellulose and 100 μL of the solution was injected intraperitoneally 30 minutes prior to the administration of 100 mg/kg of arachidponic acid. A solution of this irritant, b 100 mg/mL in ethanol, was applied to the surface of the ear, 5 μL to the upper surface and 5 μL to the lower surface. After sixty minutes, the thickness of the ear was measured to 0.01 mm by a micrometer with the loose drag positioned at the lateral-most edge of the mid-point of the pinna. Data were calculated as the percent inhibityion by the test compound of increased ear thickness compared to control animals recieveing only the irritant.
As for `CC(C)(SCc1ccccc1)[C@@H](NC(=O)OCC1c2ccccc2-c2ccccc21)C(=O)O` [NPC 15953, S-Benzyl-β,β-dimethyl-N-[9H-(fluoren-9-ylmethoxy)carbonyl]-D-cystein], the “% Inhibition Intraperitoneal” value stood at 46%.
Regarding `COCc1cccc2c1C(COC(=O)N[C@@H](CC(C)C)C(=O)O)c1ccccc1-2` (stereo partly drawn) [NPC 15673, N-{[9H-(1-Methoxymethylfluoren-9-yl)methoxy]carbonyl}-L-leucine], the “% Inhibition Intraperitoneal” value is 24%.

Still in this assay, the particulars now being: i.p., 30 mg/kg; sixty minutes.
As to `CC(C)(SCc1ccccc1)[C@@H](NC(=O)OCC1c2ccccc2-c2ccccc21)C(=O)O` [NPC 15953, S-Benzyl-β,β-dimethyl-N-[9H-(fluoren-9-ylmethoxy)carbonyl]-D-cystein], the “% Inhibition Intraperitoneal” value turned out to be 66%.
On the same count and under the same terms, then `COCc1cccc2c1C(COC(=O)N[C@@H](CC(C)C)C(=O)O)c1ccccc1-2` (stereo partly drawn) [NPC 15673, N-{[9H-(1-Methoxymethylfluoren-9-yl)methoxy]carbonyl}-L-leucine], with 27%.

Staying with this assay, now noted: i.p., 100 mg/kg; sixty minutes.
As for `CC(C)(SCc1ccccc1)[C@@H](NC(=O)OCC1c2ccccc2-c2ccccc21)C(=O)O` [NPC 15953, S-Benzyl-β,β-dimethyl-N-[9H-(fluoren-9-ylmethoxy)carbonyl]-D-cystein], the “% Inhibition Intraperitoneal” value is 60%.
Same read-out and setting: the same measure for `COCc1cccc2c1C(COC(=O)N[C@@H](CC(C)C)C(=O)O)c1ccccc1-2` (stereo partly drawn) [NPC 15673, N-{[9H-(1-Methoxymethylfluoren-9-yl)methoxy]carbonyl}-L-leucine]: 58%.

The next assay concerns Ear Edema Caused by Xylene. Put plainly: Inhibition of Ear Edema Caused by Xylene (II), Table 9. The class given is in vivo, CF-1 mice. The following applies: i.p., 10 mg/kg; 2 h. Here is the method: Inhibition of Ear Edema Caused by Xylene (II)
CF-1 mice, 25-30 g body weight, six animals per group, were used. The requisite amount of the test compound was dissolved is dimethyl sulfoxide or 0.5% methylcellulose and 100 μL of the solution was injected intraperitoneally 30 minutes prior to the administration the irritant. The irritant xylene was applied to the surface of the ear, 20 μL to the upper surface and 20 μL to the lower surface, After two hours, the thickness of the ear was measured to 0.01 mm by a micrometer with the loose drag positioned at the lateral-most edge of the mid-point of the pinna. Data were calculated as the percent inhibition by the test compound of increased ear thickness compared to control animals receiving only the irritant.
Consider `CC(C)(SCc1ccccc1)[C@@H](NC(=O)OCC1c2ccccc2-c2ccccc21)C(=O)O` [NPC 15953, S-Benzyl-β,β-dimethyl-N-[9H-(fluoren-9-ylmethoxy)carbonyl]-D-cystein], for which the “% Inhibition” value stood at 46%.
On the same count and under the same terms, the same measure for `COCc1cccc2c1C(COC(=O)N[C@@H](CC(C)C)C(=O)O)c1ccccc1-2` (stereo partly drawn) [NPC 15673, N-{[9H-(1-Methoxymethylfluoren-9-yl)methoxy]carbonyl}-L-leucine]: 20%.

The assay is the same for the next values; noted with them: i.p., 30 mg/kg; 2 h.
For `CC(C)(SCc1ccccc1)[C@@H](NC(=O)OCC1c2ccccc2-c2ccccc21)C(=O)O` [NPC 15953, S-Benzyl-β,β-dimethyl-N-[9H-(fluoren-9-ylmethoxy)carbonyl]-D-cystein], the “% Inhibition” value was 66%.
In the case of `COCc1cccc2c1C(COC(=O)N[C@@H](CC(C)C)C(=O)O)c1ccccc1-2` (stereo partly drawn) [NPC 15673, N-{[9H-(1-Methoxymethylfluoren-9-yl)methoxy]carbonyl}-L-leucine], the “% Inhibition” value is reported as 26%.

The same assay, now with this note: i.p., 100 mg/kg; 2 h.
As to `CC(C)(SCc1ccccc1)[C@@H](NC(=O)OCC1c2ccccc2-c2ccccc21)C(=O)O` [NPC 15953, S-Benzyl-β,β-dimethyl-N-[9H-(fluoren-9-ylmethoxy)carbonyl]-D-cystein], the “% Inhibition” value is listed as 60%.
With `COCc1cccc2c1C(COC(=O)N[C@@H](CC(C)C)C(=O)O)c1ccccc1-2` (stereo partly drawn) [NPC 15673, N-{[9H-(1-Methoxymethylfluoren-9-yl)methoxy]carbonyl}-L-leucine], the “% Inhibition” value was determined as 29%.

The next assay relates to Ear Edema Caused by Oxazolone. Put plainly: Inhibition of Ear Edema Caused by Oxazolone (II), Table 10. Format: in vivo, CF-1 mice. The following applies: i.p., 10 mg/kg; 24 h. Here is the method: Inhibition of Ear Edema Caused by Oxazolone (II)
CF-1 mice, 25-30 g body weight, five to six animals per group were used. The mice were sensitized to the irritant two weeks prior to the test by dribbling 100 μL of a 3% solution of oxazolone in acetone onto the abdominal skin of the animal. Test compounds were administered intraperitoneally as follows. […] The irritant, 3% oxazolone in acetone, was added to the surface of the ear, 5 μL added to the upper surface and 5 μL added to the lower surface. After twenty four hours, the thickness of the ear was measured to 0.01 mm by a micrometer with loose drag, positioned at the lateral-most edge of the mid-point of the pinna. Data were calculated as the inhibition of increased ear thickness compared to control animals' receiving only the irritant.
`CC(C)(SCc1ccccc1)[C@@H](NC(=O)OCC1c2ccccc2-c2ccccc21)C(=O)O` [NPC 15953, S-Benzyl-β,β-dimethyl-N-[9H-(fluoren-9-ylmethoxy)carbonyl]-D-cystein]: the “% Inhibition Intraperitoneal” value turned out to be 0%.
Turning to `COCc1cccc2c1C(COC(=O)N[C@@H](CC(C)C)C(=O)O)c1ccccc1-2` (stereo partly drawn) [NPC 15673, N-{[9H-(1-Methoxymethylfluoren-9-yl)methoxy]carbonyl}-L-leucine], the “% Inhibition Intraperitoneal” value was determined as 0%.

The same assay, now with this note: i.p., 30 mg/kg; 24 h.
Consider `CC(C)(SCc1ccccc1)[C@@H](NC(=O)OCC1c2ccccc2-c2ccccc21)C(=O)O` [NPC 15953, S-Benzyl-β,β-dimethyl-N-[9H-(fluoren-9-ylmethoxy)carbonyl]-D-cystein], for which the “% Inhibition Intraperitoneal” value is listed as 28%.
Take `COCc1cccc2c1C(COC(=O)N[C@@H](CC(C)C)C(=O)O)c1ccccc1-2` (stereo partly drawn) [NPC 15673, N-{[9H-(1-Methoxymethylfluoren-9-yl)methoxy]carbonyl}-L-leucine]: the “% Inhibition Intraperitoneal” value was 12%.

Staying with this assay, now noted: i.p., 100 mg/kg; 24 h.
Regarding `CC(C)(SCc1ccccc1)[C@@H](NC(=O)OCC1c2ccccc2-c2ccccc21)C(=O)O` [NPC 15953, S-Benzyl-β,β-dimethyl-N-[9H-(fluoren-9-ylmethoxy)carbonyl]-D-cystein], the “% Inhibition Intraperitoneal” value is 79%.
On the same count and under the same terms, the same measure for `COCc1cccc2c1C(COC(=O)N[C@@H](CC(C)C)C(=O)O)c1ccccc1-2` (stereo partly drawn) [NPC 15673, N-{[9H-(1-Methoxymethylfluoren-9-yl)methoxy]carbonyl}-L-leucine]: 18%.

Another assay relates to Reverse Passive Artus Reaction. Put plainly: Reverse Passive Artus Reaction (II), Table 11. The class given is in vivo, Male CD rats. The following applies: inhibition of blueing; i.p., 100 mg/kg. Here is the method:
Reverse Passive Artus Reaction (II) Male CD rats weighing between 200 and 250 g were used. […] The animals were anesthetized inhalationally with isoflurane and then injected through the penile vein with 1 mL of a solution of 2.5 mg of Evan's blue dye and 5.0 mg of human serum albumin in 1 mL of saline. This treatment was followed immediately by intracutaneous injections of 0.03 mL of anti-human albumin diluted to contain 3.65 mg of antibody at 3 sites along the midline back. Anesthesia was terminated and after three hours, the animals were sacrificed. The skin was removed and the blue stained areas cut out. The skin patches were soaked overnight in stoppered tubes containing 1 mL of 1 N potassium hydroxide at 37° C. Then 9 mL of a mixture of five parts of a 0.6 N phosphoric acid and thirteen parts of acetone were added to the tubes. The tube contents were agitated and centrifuged, and the absorbance measured at 620 nm. The data were calculated as inhibition of blueing by test compound compared to control animals receiving only antigen and antibody.
With `CC(C)(SCc1ccccc1)[C@@H](NC(=O)OCC1c2ccccc2-c2ccccc21)C(=O)O` [NPC 15953, S-Benzyl-β,β-dimethyl-N-[9H-(fluoren-9-ylmethoxy)carbonyl]-D-cystein], the “% Inhibition Intraperitoneal” value stood at 68%.
On to `COCc1cccc2c1C(COC(=O)N[C@@H](CC(C)C)C(=O)O)c1ccccc1-2` (stereo partly drawn) [NPC 15673, N-{[9H-(1-Methoxymethylfluoren-9-yl)methoxy]carbonyl}-L-leucine], for which the “% Inhibition Intraperitoneal” value is 46%.

For the origin of these results see patent US5079260A, “Method for treating inflammation and compounds and compositions suitable for use therein” (Nova Pharmaceutical Corporation, priority 1990, dated 1992).
